Source: patent US20230398130A1, “METHODS AND COMPOSITIONS FOR DIFFERENTIATING STEM CELLS” (Massachusetts Institute of Technology, priority 2020, published 2023)
Counter-ions that a name gives are not always drawn.

How the values were obtained:
[1] = test system: ISC-enriched organoids; assay: Primary screen, 384-well 2.5-D organoid differentiation (ENR+CD, 6 days): basal lysozyme secretion (LYZ.NS); format: cell-based, murine; details: primary screen; for Dose.FC.LYZ.NS: FC vs plate median; for Z.LYZ.NS: standard z score
Source text: (§1) High-throughput screening.

[2] = test system: ISC-enriched organoids; assay: Primary screen, 384-well 2.5-D organoid differentiation (ENR+CD, 6 days, Target Selective Inhibitor Library, vs whole-plate median): ATP (CellTiter-Glo 3D, CTG); details: for Dose.FC.CTG: FC vs plate median; for SSMD.CTG: strictly standardized mean difference
[3] = test system: ISC-enriched organoids; assay: Primary screen, 384-well 2.5-D organoid differentiation (ENR+CD, 6 days): carbachol-induced lysozyme secretion (LYZ.S); format: cell-based, murine; details: primary screen; for Dose.FC.LYZ.S: FC vs plate median; for Z.LYZ.S: standard z score
Source text: as §1

[4] = strictly standardized mean difference, 1st of the 4 dose lines of the treatment (dose not given)
[5] = strictly standardized mean difference, 2nd of the 4 dose lines of the treatment (dose not given)
[6] = strictly standardized mean difference, 3rd of the 4 dose lines of the treatment (dose not given)
[7] = strictly standardized mean difference, 4th of the 4 dose lines of the treatment (dose not given)
[8] = Dose 0.08 uM, primary screen, standard z score
[9] = Dose 0.40 uM, primary screen, standard z score
[10] = Dose 2.00 uM, primary screen, standard z score
[11] = Dose 10.00 uM, primary screen, standard z score
[12] = primary screen, 1st of the 4 dose lines of the treatment (dose not given)
[13] = primary screen, 2nd of the 4 dose lines of the treatment (dose not given)
[14] = primary screen, 3rd of the 4 dose lines of the treatment (dose not given)
[15] = primary screen, 4th of the 4 dose lines of the treatment (dose not given)
[16] = primary screen, dose 0.08 uM, standard z score of FC
[17] = primary screen, dose 0.40 uM, standard z score of FC
[18] = primary screen, dose 2.00 uM, standard z score of FC
[19] = primary screen, dose 10.00 uM, standard z score of FC
[20] = strictly standardized mean difference of replicates, four lines per treatment = four doses (dose not given), column head inferred
[21] = Dose 0.40 uM, standard z score of FC
[22] = Dose 2.00 uM, standard z score of FC
[23] = Dose 10.00 uM, standard z score of FC
[24] = Dose 0.08 uM, standard z score of FC

Question: What does the source list for `Cc1ccc(NC(=O)c2ccc(CN3CCN(C)CC3)cc2)cc1Nc1nccc(-c2cccnc2)n1` [Imatinib (STI571)]?
Answer: Dose.FC.LYZ.NS ([1]; Dose 0.08 uM): 0.033 log 2 fold change; Z.LYZ.NS ([1]; Dose 0.08 uM): 0.284; Dose.FC.LYZ.NS ([1]; Dose 0.40 uM): 0.012 log 2 fold change; Z.LYZ.NS ([1]; Dose 0.40 uM): 0.104; Dose.FC.LYZ.NS ([1]; Dose 2.00 uM): 0.025 log 2 fold change; Z.LYZ.NS ([1]; Dose 2.00 uM): 0.217; Dose.FC.LYZ.NS ([1]; Dose 10.00 uM): −0.038 log 2 fold change; Z.LYZ.NS ([1]; Dose 10.00 uM): −0.333; SSMD.LYZ.NS [1, 4]: 0.326; SSMD.LYZ.NS [1, 5]: 0.108; SSMD.LYZ.NS [1, 6]: 0.152; SSMD.LYZ.NS [1, 7]: −0.330; Dose.FC.CTG ([2]; Dose 0.08 uM, primary screen): −0.150 log 2 fold change; Z.CTG [2, 8]: −0.357; Dose.FC.CTG ([2]; Dose 0.40 uM, primary screen): 0.079 log 2 fold change; Z.CTG [2, 9]: 0.188; Dose.FC.CTG ([2]; Dose 2.00 uM, primary screen): 0.056 log 2 fold change; Z.CTG [2, 10]: 0.135; Dose.FC.CTG ([2]; Dose 10.00 uM, primary screen): −0.034 log 2 fold change; Z.CTG [2, 11]: −0.082; SSMD.CTG [2, 12]: −0.258; SSMD.CTG [2, 13]: 0.254; SSMD.CTG [2, 14]: 0.194; SSMD.CTG [2, 15]: −0.097

Question: How did the Z.CTG [2, 16] turn out when `CC(C)(C#N)c1cc(Cn2cncn2)cc(C(C)(C)C#N)c1` [Anastrozole] was run?
Answer: The Z.CTG was −0.279.

Question: And the Z.CTG [2, 17]?
Answer: The Z.CTG was 0.057.

Question: And the Z.CTG [2, 18]?
Answer: The Z.CTG was −0.139.

Question: And the Z.CTG [2, 19]?
Answer: The Z.CTG was −1.191.

Question: What about the SSMD.LYZ.S [3, 20] of the same molecule?
Answer: The SSMD.LYZ.S was 0.304.

Question: For `CCOc1nc2cccc(C(=O)O)c2n1Cc1ccc(-c2ccccc2-c2nnn[nH]2)cc1` [Candesartan], which SSMD.LYZ.NS [1, 20] is on record?
Answer: Its SSMD.LYZ.NS is −0.474.

Question: And the Z.CTG [2, 21]?
Answer: The Z.CTG was −0.299.

Question: And the Z.CTG [2, 22]?
Answer: The Z.CTG was −0.473.

Question: And the Z.CTG [2, 23]?
Answer: Its Z.CTG is −0.604.

Question: `O=c1cc(-c2cccc3c2Sc2ccccc2S3)oc(N2CCOCC2)c1` [KU-55933 (ATM Kinase Inhibitor)] was tested. Which Dose.FC.CTG ([2]; Dose 0.08 uM, primary screen) did it give?
Answer: The Dose.FC.CTG was 0.524 log 2 fold change.

Question: And the Z.CTG [2, 8]?
Answer: The Z.CTG was 1.251.

Question: What about the Dose.FC.CTG ([2]; Dose 0.40 uM, primary screen) of the same molecule?
Answer: The Dose.FC.CTG was 0.477 log 2 fold change.

Question: What about the Z.CTG [2, 9] of the same molecule?
Answer: The Z.CTG was 1.140.

Question: And the Dose.FC.CTG ([2]; Dose 2.00 uM, primary screen)?
Answer: Its Dose.FC.CTG is 0.551 log 2 fold change.

Question: And the Z.CTG [2, 10]?
Answer: The Z.CTG was 1.317.

Question: What about the Dose.FC.CTG ([2]; Dose 10.00 uM, primary screen) of the same molecule?
Answer: Its Dose.FC.CTG is 0.541 log 2 fold change.

Question: And the Z.CTG [2, 11]?
Answer: The Z.CTG was 1.293.

Question: What about the SSMD.CTG [2, 12] of the same molecule?
Answer: The SSMD.CTG was 1.626.

Question: And the SSMD.CTG [2, 13]?
Answer: Its SSMD.CTG is 1.743.

Question: What about the SSMD.CTG [2, 14] of the same molecule?
Answer: The SSMD.CTG was 1.554.

Question: What about the SSMD.CTG [2, 15] of the same molecule?
Answer: Its SSMD.CTG is 1.744.

Question: What about the Dose.FC.LYZ.S ([3]; Dose 0.08 uM) of the same molecule?
Answer: Its Dose.FC.LYZ.S is 0.168 log 2 fold change.

Question: What about the Dose.FC.LYZ.S ([3]; Dose 0.40 uM) of the same molecule?
Answer: Its Dose.FC.LYZ.S is 0.200 log 2 fold change.

Question: And the Dose.FC.LYZ.S ([3]; Dose 2.00 uM)?
Answer: The Dose.FC.LYZ.S was 0.161 log 2 fold change.

Question: And the Dose.FC.LYZ.S ([3]; Dose 10.00 uM)?
Answer: Its Dose.FC.LYZ.S is 0.076 log 2 fold change.

Question: What about the Z.LYZ.S ([3]; 1st of the 4 dose lines of the treatment (dose not given)) of the same molecule?
Answer: The Z.LYZ.S was 1.088.

Question: What about the Z.LYZ.S ([3]; 2nd of the 4 dose lines of the treatment (dose not given)) of the same molecule?
Answer: Its Z.LYZ.S is 1.291.

Question: And the Z.LYZ.S ([3]; 3rd of the 4 dose lines of the treatment (dose not given))?
Answer: The Z.LYZ.S was 1.043.

Question: And the Z.LYZ.S ([3]; 4th of the 4 dose lines of the treatment (dose not given))?
Answer: Its Z.LYZ.S is 0.494.

Question: And the SSMD.LYZ.S [3, 4]?
Answer: The SSMD.LYZ.S was 1.113.

Question: And the SSMD.LYZ.S [3, 5]?
Answer: Its SSMD.LYZ.S is 0.994.

Question: What about the SSMD.LYZ.S [3, 6] of the same molecule?
Answer: The SSMD.LYZ.S was 1.246.

Question: What about the SSMD.LYZ.S [3, 7] of the same molecule?
Answer: The SSMD.LYZ.S was 0.400.

Question: `COc1cc(CCc2cc(NC(=O)c3ccc(N4CC(C)NC(C)C4)cc3)n[nH]2)cc(OC)c1` (stereo not drawn) [AZD4547] was tested. Which Dose.FC.CTG ([2]; primary screen, dose 0.08 uM, ENR+CD 6 days) did it give?
Answer: The Dose.FC.CTG was 0.160 log 2 fold change.

Question: What about the Z.CTG [2, 16] of the same molecule?
Answer: The Z.CTG was 0.382.

Question: And the Dose.FC.CTG ([2]; primary screen, dose 0.40 uM, ENR+CD 6 days)?
Answer: The Dose.FC.CTG was 0.101 log 2 fold change.

Question: What about the Z.CTG [2, 17] of the same molecule?
Answer: Its Z.CTG is 0.241.

Question: And the Dose.FC.CTG ([2]; primary screen, dose 2.00 uM, ENR+CD 6 days)?
Answer: Its Dose.FC.CTG is −0.010 log 2 fold change.

Question: And the Z.CTG [2, 18]?
Answer: The Z.CTG was −0.024.

Question: What about the Dose.FC.CTG ([2]; primary screen, dose 10.00 uM, ENR+CD 6 days) of the same molecule?
Answer: Its Dose.FC.CTG is −0.062 log 2 fold change.

Question: What about the Z.CTG [2, 19] of the same molecule?
Answer: Its Z.CTG is −0.147.

Question: What about the Dose.FC.LYZ.S ([3]; dose 0.08 uM, ENR+CD 6 days) of the same molecule?
Answer: Its Dose.FC.LYZ.S is 0.157 log 2 fold change.

Question: What about the Dose.FC.LYZ.S ([3]; dose 0.40 uM, ENR+CD 6 days) of the same molecule?
Answer: Its Dose.FC.LYZ.S is 0.083 log 2 fold change.

Question: What about the Dose.FC.LYZ.S ([3]; dose 2.00 uM, ENR+CD 6 days) of the same molecule?
Answer: Its Dose.FC.LYZ.S is 0.074 log 2 fold change.

Question: And the Dose.FC.LYZ.S ([3]; dose 10.00 uM, ENR+CD 6 days)?
Answer: Its Dose.FC.LYZ.S is −0.049 log 2 fold change.

Question: How did the Z.CTG [2, 16] turn out when `C[C@@H](O[C@H]1OCCN(Cc2n[nH]c(=O)[nH]2)[C@H]1c1ccc(F)cc1)c1cc(C(F)(F)F)cc(C(F)(F)F)c1` [Aprepitant] was run?
Answer: The Z.CTG was 0.747.

Question: What about the Z.CTG [2, 17] of the same molecule?
Answer: The Z.CTG was 0.962.

Question: And the Z.CTG [2, 18]?
Answer: Its Z.CTG is 0.346.

Question: What about the Z.CTG [2, 19] of the same molecule?
Answer: Its Z.CTG is 0.121.

Question: What does the source list for `COc1cc2nc(N3CCN(C(=O)C4COc5ccccc5O4)CC3)nc(N)c2cc1OC` (stereo not drawn) [Doxazosin Mesylate]?
Answer: Z.CTG [2, 24]: 0.171; Z.CTG [2, 21]: −0.037; Z.CTG [2, 22]: 0.349; Z.CTG [2, 23]: 0.179

Question: For `O=C(NOC[C@H](O)CO)c1ccc(F)c(F)c1Nc1ccc(I)cc1F` [PD0325901], which Z.CTG [2, 24] is on record?
Answer: Its Z.CTG is −1.200.

Question: What about the Z.CTG [2, 21] of the same molecule?
Answer: Its Z.CTG is −2.760.

Question: And the Z.CTG [2, 22]?
Answer: The Z.CTG was −2.072.

Question: What about the Z.CTG [2, 23] of the same molecule?
Answer: Its Z.CTG is −2.301.
